Laboratory results taken from patent US4492692A, “Cephalosporin derivatives” (Imperial Chemical Industries PLC, priority 1980, dated 1985).
Values after ≈ are worked out from the molar mass of the structure shown.

What was measured:
Assay in all cases: MIC by agar-dilution technique, Jewell and Pearmain agar
Format in all cases: cell-based
Ent. cloacae = conditions: Enterobacter cloacae, Code No. A13, inoculum ~10^5 CFU
Text: (§1) The results set out in the following Table are illustrative of the biological activity of the compounds of the present invention. […] The following results are those obtained on a standard in vitro test system using Jewell and Pearmain agar medium. The antibacterial activity is described in terms of the minimum inhibitory concentration (MIC) determined by agar-dilution technique with an inoculum size of ~10^5 CFU.

Proteus mirabilis = conditions: Code No. A18, inoculum ~10^5 CFU
Text: as §1

E. coli = conditions: Escherichia coli, Code No. A8, inoculum ~10^5 CFU
Text: as §1

K. aerogenes = conditions: Klebsiella aerogenes, Code No. A10, inoculum ~10^5 CFU
Text: as §1

Staph. aureus = conditions: Staphylococcus aureus, Code No. A6, inoculum ~10^5 CFU
Text: as §1

Serratia marescens = conditions: Code No. A16, inoculum ~10^5 CFU
Text: as §1

Ps. aeruginosa = conditions: Pseudomonas aeruginosa, Code No. A21, inoculum ~10^5 CFU
Text: as §1

Salmonella dublin = conditions: Salmonella enterica, Code No. A20, inoculum ~10^5 CFU
Text: as §1

Strep. pyogenes = conditions: Streptococcus pyogenes, Code No. A1, inoculum ~10^5 CFU
Text: as §1

| SMILES | MIC (Ent. cloacae) | MIC (Proteus mirabilis) | MIC (E. coli) | MIC (K. aerogenes) | MIC (Staph. aureus) | MIC (Serratia marescens) | MIC (Ps. aeruginosa) | MIC (Salmonella dublin) | MIC (Strep. pyogenes) |
| --- | --- | --- | --- | --- | --- | --- | --- | --- | --- |
| CC(=O)OCC1=C(C(=O)O)N2C(=O)[C@@H](Nc3nc(Cc4ccccc4)c[nH]3)[C@H]2SC1 [Example 1, 7-(4-benzylimidazol-2-yl)amino-3-acetoxymethylceph-3-em-4-carboxylic acid] | 128 µg/mL (≈ 299 µM) | 32 µg/mL (≈ 74.7 µM) | 0.25 µg/mL (≈ 0.583 µM) | 1 µg/mL (≈ 2.33 µM) | 32 µg/mL (≈ 74.7 µM) | 64 µg/mL (≈ 149 µM) | > 256 µg/mL | 0.5 µg/mL (≈ 1.17 µM) |  |
| Cc1nnc(SCC2=C(C(=O)O)N3C(=O)[C@@H](Nc4nc(CCNC(=O)C(F)(F)F)c[nH]4)[C@H]3SC2)s1 [Example 4.2, 7-[4-(2-trifluoroacetylaminoethyl)imidazol-2-yl]amino-3-(2-methyl-1,3,4-thiadiazol-5-yl)thiomethylceph-3-em-4-carboxylic acid] | 16 µg/mL (≈ 29.1 µM) | 16 µg/mL (≈ 29.1 µM) | 0.12 µg/mL (≈ 0.218 µM) | 0.12 µg/mL (≈ 0.218 µM) | 32 µg/mL (≈ 58.2 µM) | 4 µg/mL (≈ 7.28 µM) | > 256 µg/mL | 0.25 µg/mL (≈ 0.455 µM) | 16 µg/mL (≈ 29.1 µM) |
| C=CCc1c[nH]c(N[C@@H]2C(=O)N3C(C(=O)O)=C(CSc4nnnn4C)CS[C@H]23)n1 [Example 6.1, 7-(4-allylimidazol-2-yl)amino-3-(1-methyl-1H-tetrazol-5-yl)thiomethylceph-3-em-4-carboxylic acid] | 16 µg/mL (≈ 36.8 µM) | 2 µg/mL (≈ 4.6 µM) | 0.016 µg/mL (≈ 0.0368 µM) | 0.03 µg/mL (≈ 0.069 µM) | 32 µg/mL (≈ 73.6 µM) | 0.25 µg/mL (≈ 0.575 µM) | > 256 µg/mL | 0.016 µg/mL (≈ 0.0368 µM) | 8 µg/mL (≈ 18.4 µM) |
| CNC(=O)OCCCc1c[nH]c(N[C@@H]2C(=O)N3C(C(=O)O)=C(COC(C)=O)CS[C@H]23)n1 [Example 9.2, 7-[4-(3-methylcarbamoyloxypropyl)imidazol-2-yl]amino-3-acetoxymethylceph-3-em-4-carboxylic acid] | 64 µg/mL (≈ 141 µM) | 8 µg/mL (≈ 17.6 µM) | 0.03 µg/mL (≈ 0.0662 µM) | 0.06 µg/mL (≈ 0.132 µM) | 64 µg/mL (≈ 141 µM) | 8 µg/mL (≈ 17.6 µM) | > 256 µg/mL | 0.06 µg/mL (≈ 0.132 µM) | 32 µg/mL (≈ 70.6 µM) |
| O=C(O)C1=C(CSc2c[nH]nn2)CS[C@@H]2[C@H](Nc3nc(CCNC(=O)C(F)(F)F)c[nH]3)C(=O)N12 [Example 10, 7-[4-(2-trifluoroacetylaminoethyl)imidazol-2-yl]amino-3-(1H-1,2,3-triazol-4-yl)thiomethylceph-3-em-4-carboxylic acid] | 16 µg/mL (≈ 30.9 µM) | 2 µg/mL (≈ 3.86 µM) | 0.03 µg/mL (≈ 0.0579 µM) | 0.06 µg/mL (≈ 0.116 µM) | 64 µg/mL (≈ 123 µM) | 16 µg/mL (≈ 30.9 µM) | > 256 µg/mL | 0.016 µg/mL (≈ 0.0309 µM) | 64 µg/mL (≈ 123 µM) |
| Cn1nnnc1SCC1=C(C(=O)O)N2C(=O)[C@@H](Nc3nc(CCC#N)c[nH]3)[C@H]2SC1 [Example 16, 7-[4-(2-cyanoethyl)imidazol-2-yl]amino-3-(1-methyl-1H-tetrazol-5-yl)thiomethylceph-3-em-4-carboxylic acid] | 4 µg/mL (≈ 8.94 µM) | 1 µg/mL (≈ 2.23 µM) | 0.016 µg/mL (≈ 0.0358 µM) | 0.06 µg/mL (≈ 0.134 µM) | 16 µg/mL (≈ 35.8 µM) | 2 µg/mL (≈ 4.47 µM) | > 128 µg/mL | 0.008 µg/mL (≈ 0.0179 µM) | 8 µg/mL (≈ 17.9 µM) |
| O=C(O)C1=C(CSc2c[nH]nn2)CS[C@@H]2[C@H](Nc3nc(CCCNC(=S)NCC(F)(F)F)c[nH]3)C(=O)N12 [Example 80, 7-[4-(3-[3-(2,2,2-trifluoroethyl)thioureido]propyl)imidazol-2-yl]amino-3-(1H-1,2,3-triazol-4-yl)thiomethylceph-3-em-4-carboxylic acid] | 4 µg/mL (≈ 6.92 µM) | 4 µg/mL (≈ 6.92 µM) | 1 µg/mL (≈ 1.73 µM) | 2 µg/mL (≈ 3.46 µM) | 32 µg/mL (≈ 55.4 µM) | 64 µg/mL (≈ 111 µM) | > 128 µg/mL | 0.5 µg/mL (≈ 0.866 µM) | 32 µg/mL (≈ 55.4 µM) |
